{"source": "patent US5080884A", "about": "“Hydrocarbylphenyl diaminodithiol radionuclide complexes and their use in imaging” (Medi-Physics, Inc., priority 1991, dated 1992)", "key": {"[1]": {"assay": "Electrophoresis of Tc-99m complex (NaH2PO4, pH 4.5)", "type": "physicochemical", "details": "0.05 M NaH2PO4, pH 4.5, 300 volts, 30 min"}, "[2]": {"assay": "Biological distribution of Tc-99m complexes in rats (pentobarbital anesthesia)", "type": "in vivo, Female Sprague-Dawley rats", "details": "average of 2 rats; for Blood, % Injected Dose/Gram Tissue / Brain, % Injected Dose/Gram Tissue / Heart, % Injected Dose/Gram Tissue: pentobarbital anesthesia; for Brain:Blood / Heart:Blood: ratio", "description": "Distribution of the Tc-99m labeled compounds was evaluated in rats. Female Sprague-Dawley rats weighing 140 to 220 g (average 170 g) were anesthetized with sodium pentobarbital and were injected in a tail vein with from 0.05 to 10 mCi of the Tc-99m labeled complex in a volume of 0.2 to 0.5 ml. At least two rats were injected for each time point.\nThe animals were sacrificed at 5 and 30 minutes after injection and selected organs were removed; the tails were discharged to avoid interference from the injection site. The radioactivity in each organ was measured at a standard geometry with a […] sodium iodide scintillation detector adjusted for the 140 KeV emission of Tc-99m. The organs were also weighed to one hundredth of a gram and the activity was calculated as a percent of administered dose per gram."}, "[3]": {"details": "5 min after i.v. (tail vein) injection"}, "[4]": {"details": "30 min after i.v. (tail vein) injection"}}, "data": [{"substance": "Tc-99m complex of 2-(2-Butylthio-2-methylpropylamino)-1-(2-mercapto-2-methylpropylamino)-3-methylbenzene [Example 53]", "values": [{"measurement": "Electrophoresis", "setting": "[1]", "result": "neutral"}, {"measurement": "Blood, % Injected Dose/Gram Tissue", "setting": "[2]; [3]", "result": "0.76 % Injected Dose/Gram Tissue"}, {"measurement": "Brain, % Injected Dose/Gram Tissue", "setting": "[2]; [3]", "result": "0.29 % Injected Dose/Gram Tissue"}, {"measurement": "Heart, % Injected Dose/Gram Tissue", "setting": "[2]; [3]", "result": "1.58 % Injected Dose/Gram Tissue"}, {"measurement": "Blood, % Injected Dose/Gram Tissue", "setting": "[2]; [4]", "result": "0.41 % Injected Dose/Gram Tissue"}, {"measurement": "Brain, % Injected Dose/Gram Tissue", "setting": "[2]; [4]", "result": "0.29 % Injected Dose/Gram Tissue"}, {"measurement": "Heart, % Injected Dose/Gram Tissue", "setting": "[2]; [4]", "result": "0.85 % Injected Dose/Gram Tissue"}, {"measurement": "Brain:Blood", "setting": "[2]; 5 min after i.v. injection", "result": 0.38}, {"measurement": "Heart:Blood", "setting": "[2]; 5 min after i.v. injection", "result": 2.06}, {"measurement": "Brain:Blood", "setting": "[2]; 30 min after i.v. injection", "result": 0.71}, {"measurement": "Heart:Blood", "setting": "[2]; 30 min after i.v. injection", "result": 2.09}]}]}
